Results published in ChEMBL document CHEMBL1201862, “PubChem BioAssay data set” (2004).
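Where inhibition never reached the appropriate level, the endpoint shown equals the highest concentration tested. Otherwise, values were interpolated linearly from a five-concentration, 48-hour dose response in 96-well plates. The concentration for 50% growth inhibition is given as GI50.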 The source made the active and inactive calls. Rule as the data show it: active = GI50 up to about 1.1 µM and inactive = higher.

Assays:
Assay in all cases: inhibition of tumour cell growth, NCI panel, 48 h
[1] = tested on: A549
[2] = tested on: ACHN
[3] = tested on: COLO 205
[4] = tested on: HCC 2998
[5] = tested on: HCT-116
[6] = tested on: HCT-15
[7] = tested on: HOP-92
[8] = tested on: K562
[9] = tested on: MCF7
[10] = tested on: NCI-H23
[11] = tested on: NCI-H522
[12] = tested on: NCI/ADR-RES
[13] = tested on: OVCAR-3
[14] = tested on: PC-3
[15] = tested on: RXF 393
[16] = tested on: SF-539
[17] = tested on: SK-MEL-28
[18] = tested on: SK-MEL-5
[19] = tested on: SN12C
[20] = tested on: TK-10

Measured: GI50

O=C1Nc2ccccc2/C1=N/NC(=S)Nc1ccccc1Cl
inactive: [1] 3.58 µM | [2] 2.19 µM | [3] 3.63 µM | [4] 34.7 µM | [7] 3.7 µM | [8] 1.54 µM | [9] 3.4 µM | [10] 8.71 µM | [11] 11.9 µM | [13] 2.16 µM | [14] 5.93 µM | [15] 5.2 µM | [16] 2.4 µM | [17] 12.2 µM | [18] 2.89 µM | [19] 10.4 µM | [20] 2.1 µM
active: [5] 0.729 µM | [12] 0.384 µM
2.31 µM: [6]

C=C(C)/C=C/C(O)[C@](C)(O)[C@H]1[C@H](O)C[C@@]2(C)[C@@H]3CCc4c(cc(OC5OC(CO)C(O)C(O)C5O)c(O)c4C)C3(C)C(=O)C[C@]12C (stereo not given in full)
inactive: [1] > 100 µM | [2] > 100 µM | [3] > 100 µM | [4] > 100 µM | [5] > 100 µM | [7] > 100 µM | [8] > 100 µM | [9] > 100 µM | [10] 64.4 µM | [11] > 100 µM | [12] > 100 µM | [13] > 100 µM | [14] > 100 µM | [15] > 100 µM | [16] 96.4 µM | [17] > 100 µM | [18] > 100 µM | [19] > 100 µM | [20] > 100 µM
> 100 µM: [6]
